Non-standard residues stand in square brackets, D forms with d. Residues, ends and D or L forms follow the SMILES beside them.

Data on one compound can be found in PMC9259545, “Impact of poly-arginine peptides R18D and R18 on alteplase and tenecteplase thrombolysis in vitro, and neuroprotective stability to proteolysis” (Journal of Thrombosis and Thrombolysis, 2022).

One data set has as its system tPA or TNK. It counts as biochemical, human. The conditions noted are these: range over peptide concentrations 0.25-16 µM and both thrombolytics; 1-h assay. How it is done: We utilised a high throughput 96-well plate thrombolysis assay (“halo clot assay”) based on the procedure developed by Bonnard et al.. To reduce assay components the halo thrombus formation procedure was modified by replacing the original thrombotic mixture consisting of recombinant tissue factor and synthetic phospholipids reconstituted in 30 mM calcium, with thrombin, and reducing the pro-thrombotic volume (i.e., thrombin) from 5 to 3 µL and blood volume from 25 to 12 µL. Another modification to simplify clot formation consisted of adding the thrombin (3 µL; 500 nM in saline) to one side of the well and 12 µL of blood to the opposite side of well, before using a heat stretched Pasteur pipette with sealed end to mix the two liquids together using 4 to 5 circular motions around the edge of the well (halo clot). The original methodology involved adding the 5 μL of the clotting mixture to the edge of the well, and then using a micropipette to slowly release the 25 μL of blood to the edge of the well while at the same time maintaining a circular motion. Plates were incubated in a humidified 37 °C incubator for 1 h before use in the thrombolysis assay.
The thrombolysis assay involved adding 30 µL of Tris buffer (50 mM Tris–HCl, 100 mM NaCl, pH 7.4) with or without peptide followed by 55 µL Tris buffer containing tPA or TNK (5 nM final concentration) and 50% human plasma (final plasma concentration during thrombolysis 27.5%). The final concentration of peptide during thrombolysis ranged from 0.25 to 16 µM (note: an intravenous dose of R18D at 350 nmol/kg, which is likely to be neuroprotective achieves a Cmax of 0.7–0.9 µM in healthy male and female rats; unpublished observation). […] Following the addition of tPA or TNK into the wells, clot lysis was monitored over a 1-h period at 37 °C using a plate reader (Cytation5, BioTek, USA) by measuring absorbance at 510 nm every 1 min immediately after orbital shaking (205 rpm for 5 s). Controls consisted of wells with no thrombin (100% clot lysis; L100%) and wells with no tPA or TNK (0% clot lysis; L0%). At the 1-h time point, the percentage of thrombolysis (%T) in tPA or TNK treated samples (LTX) was calculated by transforming absorbance values based on the formula: % T = (LTX) − (L0%)/(L100%) − (L0%) × 100. In addition, during the 1-h period of clot lysis lag time and maximal activity (also known as maximum velocity or Vmax) of the thrombolysis reaction were calculated. The lag time is defined as the time interval between the first absorbance reading (time = 0) and the line of maximum slope of the thrombolysis reaction. The maximal activity is calculated from the maximum slope over the time course of the assay and reflects the capacity of an enzyme to catalyse a reaction (i.e., thrombolysis), with higher values representing higher catalytic activity (i.e., tPA/TNK induced plasmin thrombolysis).
For each thrombolysis assay, replicates for control wells (L0% and L100%) and tPA or TNK only treated wells consisted of n = 4–8. Replicates for tPA or TNK and peptide treated wells consisted of n = 4. For data analysis and graphical representations of the results, data from three independent thrombolytic assays were pooled. Studies consisted of R18D, R18 and NA-1 examined at the 0.5, 1, 2, 4, 8 or 16 µM concentrations performed concurrently on the same 96-well plate, in respective order. […]

The next data set concerns the target T1, tPA (Homo sapiens, UniProt P00750).
T1 construct: purchased Boehringer Ingelheim, Germany 10 mg vial
The experiment in a line: Neuroprotective proteolytic stability after pre-incubation with tPA (glutamic acid excitotoxicity model, MTS). Type of data set: in vitro ADME. The conditions noted are these: 1 or 2 h or overnight (22-24 h). The protocol:
(§1) Neuronal cultures were maintained in CO2 incubator.
(§2) tPA (1000 µg/mL) or TNK (5000 µg/mL) resuspended in water (Baxter) were used to prepare 10 µg/mL (170 nM; note this is 34 times the concentration used in thrombolysis assay) stocks in MEM/2% B27 supplement (MEM/B27).
(§3) All data are presented as mean ± standard deviation (SD).

For a further data set, the target named is T2, TNK (Homo sapiens, UniProt P00750, H332A/K331A/N152Q/R333A/R334A/T138N).
T2 construct: purchased Boehringer Ingelheim 50 mg vial
T2 sequence (P00750 36-562 T138N/N152Q/K331A/H332A/R333A/R334A): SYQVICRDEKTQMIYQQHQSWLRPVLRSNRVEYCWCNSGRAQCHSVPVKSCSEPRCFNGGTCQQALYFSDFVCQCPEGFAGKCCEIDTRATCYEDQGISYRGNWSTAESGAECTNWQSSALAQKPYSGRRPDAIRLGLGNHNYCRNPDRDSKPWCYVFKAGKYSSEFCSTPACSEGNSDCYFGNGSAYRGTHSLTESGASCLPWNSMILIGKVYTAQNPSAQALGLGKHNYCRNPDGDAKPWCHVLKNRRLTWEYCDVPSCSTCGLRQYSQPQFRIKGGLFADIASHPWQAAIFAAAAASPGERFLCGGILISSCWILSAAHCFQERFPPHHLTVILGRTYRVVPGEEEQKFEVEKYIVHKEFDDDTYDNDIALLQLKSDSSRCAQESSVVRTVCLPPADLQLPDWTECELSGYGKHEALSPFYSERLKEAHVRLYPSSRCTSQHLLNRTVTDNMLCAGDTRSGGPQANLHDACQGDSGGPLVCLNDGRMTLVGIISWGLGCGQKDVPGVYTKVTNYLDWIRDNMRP
The data set can be described thus: Neuroprotective proteolytic stability after pre-incubation with TNK (glutamic acid excitotoxicity model, MTS). Type of data set: in vitro ADME. The conditions noted are these: 1 or 2 h or overnight (22-24 h). How it is done: as §1, §2, §3

The target in a further data set is trypsin (TrypLE Express) (Fusarium oxysporum, UniProt P35049).
Sequence of trypsin (TrypLE Express) (P35049 25-248): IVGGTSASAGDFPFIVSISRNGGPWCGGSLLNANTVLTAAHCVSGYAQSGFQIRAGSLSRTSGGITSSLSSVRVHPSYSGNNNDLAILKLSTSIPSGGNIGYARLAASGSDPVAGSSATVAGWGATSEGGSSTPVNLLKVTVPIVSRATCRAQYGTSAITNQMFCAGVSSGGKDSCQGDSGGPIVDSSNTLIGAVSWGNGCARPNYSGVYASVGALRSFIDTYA
The subject of another data set is plasmin. To be noted: cited from earlier work. From the text:
Given the potential future application of the R18D, R18 and NA-1 peptides as ischaemic stroke neurotherapeutics, it is important to establish if they interfere with current and future standard of care treatments, namely alteplase (tPA; recombinant tissue plasminogen activator) and tenecteplase (TNK; a modified version of tPA) thrombolysis, which are routinely administered prior to thrombectomy. […] NA-1 is also degraded by plasmin [8]. Together, these findings confirm that peptides synthesised with D-enantiomer amino acids such as R18D, unlike peptides synthesised with L-enantiomer amino acids are highly resistant to proteolytic degradation and are likely to retain their neuroprotective efficacy ...

For data set [1] the following is noted: intravenous dose 350 nmol/kg, healthy male and female rats; ref unpublished observation; cited from earlier work.
For data set [2] the following is noted: in the order; 8 (NA-1), unpublished data (R18D); cited from earlier work. From the text:
It is important to mention that the results obtained in this study are likely to overestimate any negative effects of R18D, R18 and NA-1 on tPA/TNK lag time and thrombolysis compared with what would occur clinically for several reasons. Firstly, positively charged peptides administered directly into the circulation would have a larger pool of negatively charged plasma proteins such as albumin to bind, and thus reduce any inhibitory electrostatic effects of the peptides on lag time and thrombolysis. In addition, the in vitro thrombolysis assay used in this study was performed in 27.5% plasma wh ...

T1 sequence (P00750 36-562): as the sequence (P00750 36-562 T138N/N152Q/K331A/H332A/R333A/R334A) above, with N103T, Q117N, A296K, A297H, A298R, A299R counted along it
Method for trypsin (TrypLE Express): Rat primary cortical cultures were established from embryonic day 18–19 Sprague–Dawley rats (Animal Resources Centre, WA, Australia). Briefly, cortical tissue was dissociated in 2 mL Hanks balanced salt solution (HBBS; Life Technologies, Australia) supplemented with 1.3 mM L-cysteine, 10 U/mL papain (Sigma-Aldrich, Australia) and 50 U/mL DNase (Sigma-Aldrich) by trituration with a fire-polished pipette. Dissociated neurons were transferred to a 15-mL tube containing 13 mL of cold Dulbecco’s modified Eagle’s medium (DMEM; Life Technologies)/10% horse serum (Life Technologies) and centrifuged for 4 min at 300×g. Neurons were gently resuspended in 1.5 mL of cold Neurobasal (NB; Life Technologies)/2% B27 supplement (B27; Life Technologies) and the neuronal cell concentration adjusted to 50,000 neurons/70 μL and 70 μL inoculated into each well of a 96-well microtiter plate (Nunc, USA) pre-treated wells. Pre-treated wells were coated with 50 μL of poly-D-lysine (50 μg/mL; 70–150 K; Sigma-Aldrich) for 2–3 h at room temperature before being replaced with 50 μL of NB/B27, 4% fetal bovine serum (Life Technologies), 1% horse serum, 62.5 μM glutamic acid, 25 μM 2-mercaptoethanol, 30 μg/mL penicillin and 50 μg/mL streptomycin and placed in a CO2 incubator (5% CO2, 95% air balance, 98% humidity, 37 °C) prior to seeding with neurons. Neuronal cultures were maintained in CO2 incubator. On day in vitro four, 60 µL fresh NB/B27 containing the mitotic inhibitor cytosine arabinofuranoside (final concentration 0.15 μM; Sigma-Aldrich) was added and neuronal culture were used on day in vitro 11 to 13.
As an alternative to trypsin, TrypLE Express (Thermo Fischer Scientific, Australia) a synthetic serine protease with trypsin-like activity was used. […] Hereafter, TrypLE Express is referred to as trypsin.
Trypsin solution was added to an equal volume of MEM/2% B27 (T:MEM/B27). […] Following the incubation, 50 µL of the T:MEM/B27 or HBSS:MEM/B27 peptide solution was used to treat neuronal culture as described below for the glutamic acid excitotoxicity model. […]

With `N=C(N)NCCC[C@@H](N)C(=O)N[C@H](CCCNC(=N)N)C(=O)N[C@H](CCCNC(=N)N)C(=O)N[C@H](CCCNC(=N)N)C(=O)N[C@H](CCCNC(=N)N)C(=O)N[C@H](CCCNC(=N)N)C(=O)N[C@H](CCCNC(=N)N)C(=O)N[C@H](CCCNC(=N)N)C(=O)N[C@H](CCCNC(=N)N)C(=O)N[C@H](CCCNC(=N)N)C(=O)N[C@H](CCCNC(=N)N)C(=O)N[C@H](CCCNC(=N)N)C(=O)N[C@H](CCCNC(=N)N)C(=O)N[C@H](CCCNC(=N)N)C(=O)N[C@H](CCCNC(=N)N)C(=O)N[C@H](CCCNC(=N)N)C(=O)N[C@H](CCCNC(=N)N)C(=O)N[C@H](CCCNC(=N)N)C(=O)O` [R18D] (H-[dR][dR][dR][dR][dR][dR][dR][dR][dR][dR][dR][dR][dR][dR][dR][dR][dR][dR]-OH), the “Increase in lag time (time to the commencement of thrombolysis)” value in the data set on tPA or TNK was 0 to 9.9 min. The “Resistance to degradation by tPA” value on tPA (inferred from retained neuroprotection, peptide 2 µM, tPA 170 nM) is “resistant to degradation”. Moreover, the “Neuroprotective efficacy after incubation with tPA” value at tPA (peptide 2 µM in MEM/B27 with tPA 10 µg/mL (170 nM), 37 °C CO2 incubator, then rat cortical neurons, glutamic acid 100 µM 5 min, MTS viability at 20-24 h, N = 4-8) is “a similar and a high level of neuroprotective efficacy”. Also, the “Resistance to degradation by TNK” value on TNK (inferred from retained neuroprotection, peptide 2 µM, TNK 170 nM) is given as “resistant to degradation”. The “Neuroprotective efficacy after incubation with TNK” value on TNK (peptide 2 µM in MEM/B27 with TNK 10 µg/mL (170 nM), 37 °C CO2 incubator, then rat cortical neurons, glutamic acid 100 µM 5 min, MTS viability at 20-24 h, N = 4-8) is “a similar and a high level of neuroprotective efficacy”. Besides, the “Resistance to degradation by trypsin” value at trypsin (TrypLE Express) is reported as “resistant to degradation by trypsin”. For the same compound, the “High-level neuroprotective efficacy after incubation with trypsin” value on trypsin (TrypLE Express) (peptide 2 µM in 50% TrypLE Express : MEM/B27, 1 or 2 h or overnight (22-24 h), 37 °C CO2 incubator, then rat cortical neurons, glutamic acid 100 µM 5 min, MTS viability at 20-24 h, N = 4-8) is “displayed a high-level neuroprotective efficacy”. In the data set on plasmin, the “Neuroprotective properties in the glutamic acid excitotoxicity injury model when pre-incubated with plasmin” value is “retains its neuroprotective properties” and the “Sensitivity to proteolytic degradation by plasmin” value is reported as “not”. For the same compound, the Cmax in data set [1] is 700 to 900 nM. Moreover, in data set [2], the “In vivo peak plasma concentration” value was 1 to 5 µM and the Plasma half-life was 5 to 15 min.

One may read the Cmax as the highest concentration seen after dosing.
